8 compounds from US11655225B2, “Antimycobacterial heterocyclic amides” (Crestone, Inc., priority 2018, dated 2023) can be followed below.

For data set [1], the system named is M. abscessus. Briefly: Bactericidal activity. It is filed as cell-based.
The subject of the next data set is M. tuberculosis. The data set is described as follows: Bactericidal activity. It counts as cell-based.
For a further data set, the system named is M. chelonae. Briefly: MIC determination, CLSI M24-A. It is filed as cell-based. To be noted: Mycobacteroides chelonae, range over compounds and species, read-out: MIC90 (concentration which inhibits 90% of strains).
The test system of data set [2] is azithromycin-, doxycycline, and sulfamethoxazole-resistant M. abscessus. Briefly: MIC against drug-resistant strains. It counts as cell-based. The conditions noted are these: for MIC: Mycobacteroides abscessus, clinically relevant resistant strains, M. abscessus, range over compounds and strains; for activity against resistant strains: azithromycin-, doxycycline, and sulfamethoxazole-resistant M. abscessus.

The next data set concerns M. fortuitum. The data set is described as follows: MIC determination, CLSI M24-A. It is filed as cell-based. The conditions noted are these: Mycolicibacterium fortuitum, range over compounds and species, read-out: MIC90 (concentration which inhibits 90% of strains).
The test system of data set [3] is M. abscessus. The data set is described as follows: MIC determination, CLSI M24-A. It counts as cell-based. To be noted: Mycobacteroides abscessus; for MIC90: range over compounds and species, read-out: MIC90 (concentration which inhibits 90% of strains); for MIC: CLSI M24-A.
For data set [4] the following is noted: mouse, in vivo.
A further data set is described as follows: physchem. The conditions noted are these: oil or lipid.
A further data set concerns Mabs #21. The data set is described as follows: 28-day mouse model of chronic NTM lung infection, efficacy. It is filed as in vivo, M. abscessus. To be noted: GM-CSF KO mice; 25 mg/kg once daily over 4 weeks, intratracheal microspray, 5% corn oil/saline emulsion.
In a further data set the test system is Mabs ATCC19977. It counts as cell-based. To be noted: isolated at 4×MIC on 7H11-ADC agar.
A further data set has as its system proton motive force. Briefly: Membrane potential and electrochemical pH gradient monitoring. It counts as cell-based. To be noted: Mtb intact cells and inverted membrane vesicles; data not shown.

Molecules are shown by their SMILES. Values after ≈ are worked out from the molar mass of the structure shown.

As a reminder, the MIC is the lowest concentration that inhibits growth of the organism. Read a low MIC as greater potency. Turning to `CC12CCCC(C(=O)Nc3nc4cc(Cl)cc(Cl)c4s3)(CCC1)C2` [Example 2, N-(5,7-dichloro-1,3-benzothiazol-2-yl)-5-methylbicyclo[3.3.1]nonane-1-carboxamide], the bactericidal effect entry in the data set with M. abscessus [1] and with M. tuberculosis was “bactericidal” throughout. Also, the MIC90 in the data set on M. chelonae, in the data set with M. fortuitum and with M. abscessus [3] was 0.12 to 1 µg/mL (≈ 0.313 to 2.61 µM) each time. This compound also yielded an MIC in data set [2] of 0.03 to 4 µg/mL (≈ 0.0783 to 10.4 µM). Also, in [2], the “activity against resistant strains” value is “active”.

As to `CC12CCCC(C(=O)Nc3nc4ccc(OC(F)(F)F)cc4s3)(CCC1)C2` [Example 5, 5-methyl-N-[6-(trifluoromethoxy)-1,3-benzothiazol-2-yl]bicyclo[3.3.1]nonane-1-carboxamide], the MIC90 in the data set with M. chelonae, in the data set on M. fortuitum and in the data set with M. abscessus [3] was 0.12 to 1 µg/mL (≈ 0.301 to 2.51 µM) throughout. For the same compound, the MIC in [2] was 0.03 to 4 µg/mL (≈ 0.0753 to 10 µM). Besides, the “activity against resistant strains” value in data set [2] is “active”.

Usually solubility stands for the concentration that dissolves in the medium under given conditions. A lower solubility goes with a poorly soluble substance. Take `CC12CC3CC(C)(C1)CC(C(=O)Nc1nc4ccc(OC(F)(F)F)cc4s1)(C3)C2` [Example 45, 3,5-dimethyl-N-[6-(trifluoromethoxy)-1,3-benzothiazol-2-yl]adamantane-1-carboxamide]: the tolerability result in data set [4] is “very well tolerated”. Moreover, the MIC90 in the data set with M. chelonae, in the data set on M. fortuitum and in the data set on M. abscessus [3] was 0.12 to 1 µg/mL (≈ 0.283 to 2.36 µM) throughout. In addition, in data set [2], the MIC lay in the range of 0.03 to 4 µg/mL (≈ 0.0707 to 9.42 µM). The “activity against resistant strains” value in data set [2] was “active”. Moreover, the solubility in the data set “physchem” is ≤ 250 mg/mL. Moreover, the “lung bacterial load (CFU) versus vehicle control” value with Mabs #21 is reported as “statistically significant CFU reduction”.

With `CC1CC(C(=O)Nc2nc3ccc(OC(F)(F)F)cc3s2)CC(C)(C)C1` (centres unmarked) [Example 46, 3,3,5-trimethyl-N-[6-(trifluoromethoxy)-1,3-benzothiazol-2-yl]cyclohexane-1-carboxamide], in [2], the MIC lay within 0.03 to 4 µg/mL (≈ 0.0776 to 10.4 µM) and the “activity against resistant strains” value is recorded as “active”.

For `CC1CC(C(=O)Nc2nc3ccc(C(F)(F)F)cc3s2)CC(C)(C)C1` (centres unmarked) [Example 79, 3,3,5-trimethyl-N-[6-(trifluoromethyl)-1,3-benzothiazol-2-yl]cyclohexane-1-carboxamide], the “mutations found in spontaneous-resistant mutants” value in the data set with Mabs ATCC19977 is “non-synonymous mutations in their mmpL3 gene (L551S, I306S, A309P)”.

As to `CC1CC(C(=O)Nc2nc3c(F)cc(F)cc3s2)CC(C)(C)C1` (centres unmarked) [Example 80, N-(4,6-difluoro-1,3-benzothiazol-2-yl)-3,3,5-trimethylcyclohexane-1-carboxamide], in data set [2], the MIC lay in the range of 0.03 to 4 µg/mL (≈ 0.0886 to 11.8 µM) and the “activity against resistant strains” value was “active”. Also, in the data set on proton motive force, the “effect on proton motive force (membrane potential, electrochemical pH gradient)” value is reported as “did not result from the collapse of the proton motive force”. Further, the “mutations found in spontaneous-resistant mutants” value with Mabs ATCC19977 was “non-synonymous mutations in their mmpL3 gene (L551S, I306S, A309P)”.

In the data set with M. abscessus [3], `COC1CCCC(C(=O)Nc2nc3ccc(Cl)cc3s2)C1` (centres unmarked) [Example 191, N-(6-chloro-1,3-benzothiazol-2-yl)-3-methoxycyclohexane-1-carboxamide] displayed an MIC of 2 to 32 µg/mL (≈ 6.16 to 98.5 µM).

For the compound `O=C(Nc1nc2ccc(C(F)(F)F)cc2s1)C1CCC2(CC1)CC2` [Example 192, N-[6-(trifluoromethyl)-1,3-benzothiazol-2-yl]spiro[2.5]octane-6-carboxamide], in the data set with M. abscessus [3], the MIC is 2 to 32 µg/mL (≈ 5.64 to 90.3 µM).
